Among the test systems are 786-0; A498; A549; HCC 2998; HCT-15; HOP-92; K562; M14; NCI-H23; OVCAR-5; OVCAR-8; SF-295; SK-MEL-28; SK-MEL-2; SNB-19; UACC-257; SNB-75.
Common to all, as to experiment: inhibition of tumour cell growth, NCI panel, 48 h

The structures appear in SMILES notation.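 Tested at 5 concentrations; 48 h exposure; 96-well plates; endpoints linearly interpolated, else capped at highest concentration. GI50 is the concentration that inhibits growth by half.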 Calls of active or inactive are those of the source. Cut-off read from the data, not from the text of the source: active = GI50 up to about 1.1 µM and inactive = higher. Some results are limits rather than exact numbers.

`COC(=O)C1=C(C)N(NC(N)=O)C2(N)N(NC(N)=O)C(C)=C(C(=O)OC)C12C#N` (stereo not given): the GI50 in the experiment with 786-0 is > 100 µM (inactive); in the experiment on A498 it was > 100 µM (inactive); in the experiment with A549 it was > 100 µM (inactive); in the experiment with HCC 2998, > 100 µM (inactive); in the experiment on HCT-15 it was over 100 µM; in the experiment on HOP-92 it was > 100 µM (inactive). The GI50 with K562, in the experiment with M14, with NCI-H23, in the experiment on OVCAR-5, with OVCAR-8 and with SF-295 was > 100 µM (inactive) throughout. Further, the GI50 in the experiment on SK-MEL-28, in the experiment on SK-MEL-2, in the experiment with SNB-19 and in the experiment on UACC-257 was > 100 µM (inactive) each time.
For `O=c1ccn(C2(CO)C=C(CO)C(O)C2O)c(=O)[nH]1` (stereo not given), the GI50 with 786-0 is > 25.7 µM (inactive); with A498 it was > 25.7 µM (inactive); in the experiment with A549, > 25.7 µM (inactive); with HCC 2998 it was > 25.7 µM (inactive); in the experiment on HCT-15, over 25.7 µM; with K562 it was > 25.7 µM (inactive). Also, the GI50 in the experiment on M14, in the experiment on OVCAR-8, with SK-MEL-28, in the experiment with SK-MEL-2, in the experiment with SNB-19 and with SNB-75 was > 25.7 µM (inactive) throughout. Besides, the GI50 in the experiment on UACC-257 is > 25.7 µM (inactive).
As for `CCOC(=O)C1=C(C)N(NC(=O)c2ccccc2)C2(O)CCCC12C(=O)OCC` (stereo not given), the GI50 with 786-0 is > 100 µM (inactive); with A498 it was > 100 µM (inactive); with A549, > 100 µM (inactive); with HCC 2998, > 100 µM (inactive); in the experiment with HCT-15 it was over 100 µM; in the experiment on K562 it was > 100 µM (inactive). The GI50 in the experiment with M14, in the experiment with OVCAR-5, in the experiment with OVCAR-8, with SF-295, in the experiment on SK-MEL-28 and with SK-MEL-2 was > 100 µM (inactive) each time. The GI50 is > 100 µM (inactive) in the experiment with SNB-19, 40.1 µM (inactive) in the experiment on SNB-75 and > 100 µM (inactive) in the experiment with UACC-257.
As for `NC(=O)N/N=C(\C(=O)C(=O)Nc1ccc(Cl)c(C(F)(F)F)c1)c1nc2ccc(C(=O)c3ccccc3)cc2nc1O`, the GI50 was > 100 µM (inactive) in the experiment on 786-0; 36.9 µM (inactive) in the experiment with A498; > 100 µM (inactive) in the experiment with A549; > 100 µM (inactive) in the experiment on HCC 2998; over 100 µM in the experiment with HCT-15; 7.36 µM (inactive) with HOP-92. For the same molecule, the GI50 is 48.4 µM (inactive) in the experiment on K562; > 100 µM (inactive) with M14; 97.9 µM (inactive) in the experiment on NCI-H23; > 100 µM (inactive) in the experiment with OVCAR-5; 88.9 µM (inactive) in the experiment on OVCAR-8; > 100 µM (inactive) in the experiment with SF-295. The GI50 is > 100 µM (inactive) in the experiment with SK-MEL-28, > 100 µM (inactive) in the experiment on SK-MEL-2, > 100 µM (inactive) in the experiment with SNB-19 and 72.4 µM (inactive) in the experiment on UACC-257.
As to `CC1=NN(C(=O)Cc2ccccc2)C(=O)/C1=C\C=C\c1ccccc1`, the GI50 with 786-0 was > 100 µM (inactive); in the experiment on A549, > 100 µM (inactive); with HCC 2998, > 100 µM (inactive); with HCT-15, over 100 µM; with K562, > 100 µM (inactive); in the experiment on M14, > 100 µM (inactive). The GI50 in the experiment with NCI-H23, in the experiment with OVCAR-5, in the experiment with OVCAR-8, in the experiment on SF-295, in the experiment with SK-MEL-28 and in the experiment with SK-MEL-2 was > 100 µM (inactive) each time. Also, the GI50 with SNB-19, with SNB-75 and with UACC-257 was > 100 µM (inactive) each time.
Consider `CC1CN(C(=O)CN2CCC(CCCCN(C)C)CC2)c2ccccc2NC1=O` (stereo not given), for which the GI50 with 786-0 is > 100 µM (inactive); with A498, > 100 µM (inactive); with A549, > 100 µM (inactive); in the experiment on HCC 2998, > 100 µM (inactive); in the experiment with HCT-15, over 100 µM; in the experiment on HOP-92 it was > 100 µM (inactive). Besides, the GI50 in the experiment with K562, in the experiment with M14, with NCI-H23, in the experiment with OVCAR-5, in the experiment on SF-295 and in the experiment with SK-MEL-28 was > 100 µM (inactive) in each case. Besides, the GI50 in the experiment on SNB-19 and in the experiment on UACC-257 was > 100 µM (inactive) throughout.
`CCOC(=O)C(NC(=O)c1nc[nH]c1/N=N/N(C)C)C(C)C` (stereo not given): the GI50 was > 100 µM (inactive) in the experiment on 786-0; > 100 µM (inactive) with A498; > 100 µM (inactive) with A549; > 100 µM (inactive) with HCC 2998; over 100 µM with HCT-15; > 100 µM (inactive) with K562. Further, the GI50 with M14, with NCI-H23, in the experiment with OVCAR-5, in the experiment with OVCAR-8, with SF-295 and in the experiment with SK-MEL-28 was > 100 µM (inactive) in each case. Besides, the GI50 in the experiment on SK-MEL-2, in the experiment with SNB-19, in the experiment on SNB-75 and in the experiment on UACC-257 was > 100 µM (inactive) in each case.
Consider `CON1C(=O)C2(CCCCC2)C(=O)C12C=CC(C)CC2` (stereo not given), for which the GI50 in the experiment on 786-0 was > 100 µM (inactive); with A498, > 100 µM (inactive); in the experiment on A549, > 100 µM (inactive); in the experiment with HCC 2998 it was > 100 µM (inactive); in the experiment on HCT-15, over 100 µM; in the experiment on K562, 85.5 µM (inactive). For the same molecule, the GI50 with M14, in the experiment with NCI-H23, in the experiment with OVCAR-8, in the experiment with SF-295, in the experiment with SK-MEL-28 and in the experiment on SK-MEL-2 was > 100 µM (inactive) each time. Moreover, the values for the GI50 with SNB-19, in the experiment with SNB-75 and in the experiment on UACC-257 were > 100 µM (inactive), > 100 µM (inactive) and 69.8 µM (inactive), respectively.
Take `CN(C)C(=C1C(Br)=C(Br)C(Br)=C1Br)N(C)C`: the GI50 in the experiment on 786-0 is > 100 µM (inactive); with A549, > 100 µM (inactive); in the experiment with HCC 2998, > 100 µM (inactive); in the experiment with HCT-15 it was over 100 µM; in the experiment on HOP-92 it was > 100 µM (inactive); in the experiment on K562, 30.4 µM (inactive). In addition, the GI50 in the experiment with M14, in the experiment with NCI-H23, in the experiment on OVCAR-5, in the experiment with OVCAR-8, in the experiment with SF-295 and in the experiment on SK-MEL-28 was > 100 µM (inactive) in each case. Further, the GI50 is > 100 µM (inactive) in the experiment with SK-MEL-2, 38.6 µM (inactive) in the experiment with SNB-75 and > 100 µM (inactive) with UACC-257.
As for `CC1(C)CCc2cc3c(cc2O1)OC(C)(C)C1c2c(ccc4c2CCC(C)(C)O4)OC31` (stereo not given), the GI50 with 786-0 was > 100 µM (inactive); in the experiment on A549, > 100 µM (inactive); in the experiment with HCT-15, over 100 µM; in the experiment with HOP-92, > 100 µM (inactive); with K562, > 100 µM (inactive); in the experiment with M14, 42.9 µM (inactive). In addition, the GI50 in the experiment on NCI-H23 is > 100 µM (inactive); with OVCAR-5 it was 68.4 µM (inactive); with OVCAR-8 it was > 100 µM (inactive); with SF-295 it was > 100 µM (inactive); with SK-MEL-2 it was > 100 µM (inactive).
With `CCOC(=O)c1cnc2oc(-c3ccc(OC)cc3)nn2c1=O`, the GI50 in the experiment with 786-0 was > 100 µM (inactive); in the experiment with A549, > 100 µM (inactive); in the experiment with HCC 2998, > 100 µM (inactive); with HCT-15, over 100 µM; with HOP-92 it was 29.5 µM (inactive); in the experiment on K562, > 100 µM (inactive). The GI50 with NCI-H23, with OVCAR-5, with OVCAR-8, in the experiment with SF-295, in the experiment with SK-MEL-28 and in the experiment with SK-MEL-2 was > 100 µM (inactive) in each case. The values for the GI50 in the experiment on SNB-19, in the experiment with SNB-75 and in the experiment with UACC-257 were > 100 µM (inactive), 45.3 µM (inactive) and > 100 µM (inactive), respectively.
In the case of `C/C(=N\N(C)C)C(CN1CCCCC1)C(c1ccccc1)c1c(O)c2ccccc2oc1=O` (stereo not given), the GI50 is > 100 µM (inactive) in the experiment on 786-0; > 100 µM (inactive) in the experiment with A498; > 100 µM (inactive) in the experiment with A549; over 100 µM with HCT-15; > 100 µM (inactive) in the experiment on K562; > 100 µM (inactive) in the experiment with M14. Moreover, the GI50 in the experiment on NCI-H23, in the experiment on OVCAR-5, in the experiment with OVCAR-8, in the experiment on SF-295, with SK-MEL-28 and in the experiment with SK-MEL-2 was > 100 µM (inactive) each time. Moreover, the figures for the GI50 in the experiment with SNB-19, in the experiment on SNB-75 and in the experiment with UACC-257 were > 100 µM (inactive), 28.3 µM (inactive) and > 100 µM (inactive), respectively.
Take `C1=CC=C2NCCOCC/N=C3/C=CC=CC=C3NCCOCC/N=C\2C=C1`: the GI50 in the experiment with 786-0 was > 100 µM (inactive); with A498 it was > 100 µM (inactive); with A549, 63.7 µM (inactive); in the experiment on HCC 2998 it was 67.1 µM (inactive); in the experiment with HCT-15, 41.3 µM; in the experiment on K562, 31.4 µM (inactive). Also, the GI50 in the experiment on M14 was 17.8 µM (inactive); in the experiment on NCI-H23, > 100 µM (inactive); with OVCAR-5 it was > 100 µM (inactive); in the experiment on OVCAR-8, 57.4 µM (inactive); in the experiment on SF-295 it was 52 µM (inactive); with SK-MEL-28 it was 86.5 µM (inactive). In addition, the GI50 with SK-MEL-2 is 69 µM (inactive); with SNB-19 it was > 100 µM (inactive); in the experiment on SNB-75, > 100 µM (inactive); in the experiment with UACC-257, 20 µM (inactive).
With `O=C(O)CP(=S)(S)c1ccccc1` (stereo not given), the GI50 in the experiment on 786-0, with A498, with A549, with HOP-92, in the experiment on K562 and in the experiment on M14 was > 100 µM (inactive) each time. Besides, the GI50 in the experiment on NCI-H23, in the experiment with OVCAR-8, in the experiment with SF-295, with SK-MEL-28, in the experiment on SK-MEL-2 and with SNB-19 was > 100 µM (inactive) each time. Besides, in the experiment with UACC-257, the GI50 was > 100 µM (inactive).

These data come from ChEMBL document CHEMBL1201862, “PubChem BioAssay data set” (2004).
